Target: T1, BpfD (Shewanella oneidensis, UniProt Q8E9G0)
T1 construct: gene SO_4323; BpfDS, cytoplasmic part (S225 to E639) with degenerated GGDEF and EAL domains, Strep-tagged
T1 sequence (Q8E9G0 225-639): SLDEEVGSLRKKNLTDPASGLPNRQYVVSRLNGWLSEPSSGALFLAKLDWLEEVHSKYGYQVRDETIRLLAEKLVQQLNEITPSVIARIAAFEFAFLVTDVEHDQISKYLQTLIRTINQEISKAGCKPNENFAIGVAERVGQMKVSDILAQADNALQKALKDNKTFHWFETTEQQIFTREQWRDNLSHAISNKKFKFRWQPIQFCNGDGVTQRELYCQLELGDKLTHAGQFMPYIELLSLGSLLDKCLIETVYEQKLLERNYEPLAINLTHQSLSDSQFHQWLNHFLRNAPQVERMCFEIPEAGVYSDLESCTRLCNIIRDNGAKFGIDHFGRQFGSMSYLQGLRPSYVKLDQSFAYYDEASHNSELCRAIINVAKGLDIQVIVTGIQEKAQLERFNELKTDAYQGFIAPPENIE
Experiment: isothermal titration calorimetry with purified BpfDS; supported by thermal shift assays
Type: binding

- Kd: 4.38 ± 0.8 µM
SMILES: Nc1nc2c(ncn2[C@@H]2O[C@@H]3CO[P@](=O)(O)O[C@H]4[C@@H](O)[C@H](n5cnc6c(=O)[nH]c(N)nc65)O[C@@H]4CO[P@](=O)(O)O[C@H]3[C@H]2O)c(=O)[nH]1 [c-di-GMP]

Reference: PMC11395469, “BpfD Is a c-di-GMP Effector Protein Playing a Key Role for Pellicle Biosynthesis in Shewanella oneidensis” (International Journal of Molecular Sciences, 2024)
